Measured values taken from patent publication US20260248763A1 (BIO GENUINE (SHANGHAI) BIOTECH CO., LTD, priority 2023, published 2026).
Where two headings read alike, the source gives them in different places.

Key:
V1aR = biological target: T1, V1aR (Homo sapiens, UniProt P37288); assay: Ca2+ mobilization in cells stably expressing V1aR (FLIPR, antagonist mode); format: cell-based; details: V1a-CHO stably transfected cell line
T1 construct: expressed in transfected cells; host or cells: V1a-CHO stably transfected cell line
T1 sequence (P37288 whole entry, species assumed): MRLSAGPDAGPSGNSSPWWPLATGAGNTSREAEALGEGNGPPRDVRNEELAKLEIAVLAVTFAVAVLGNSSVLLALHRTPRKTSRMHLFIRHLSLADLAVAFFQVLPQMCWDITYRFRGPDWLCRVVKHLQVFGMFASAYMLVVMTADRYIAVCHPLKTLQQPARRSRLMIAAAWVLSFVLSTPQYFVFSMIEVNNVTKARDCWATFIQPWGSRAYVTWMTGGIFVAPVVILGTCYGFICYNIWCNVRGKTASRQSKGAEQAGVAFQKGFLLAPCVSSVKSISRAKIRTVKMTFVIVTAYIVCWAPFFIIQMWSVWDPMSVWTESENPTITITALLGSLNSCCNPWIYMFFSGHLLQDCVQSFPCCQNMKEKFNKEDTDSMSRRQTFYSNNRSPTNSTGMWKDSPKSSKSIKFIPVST
Text: Test Example 2. Determination of the Effect of the Compound of the Present Disclosure on Ca^2+ Mobilization in Cells Stably Expressing V1aR
To measure the antagonistic effect of the compound of the present disclosure on V1aR activity expressed in the V1a-CHO stably transfected cell line.
• F-12 (Hyclone, SH30026.01) • FLIPR CALCIUM 6 ASSAY KIT (Molecul Device, R8191) • Fetal Bovine Serum (FBS) (AusGeneX, FBS500-S) • Hygromycin B (Solarbio, H8080-1g) • DMSO (Sigma, D4540) • HBSS (Gibco 14025-092) • Probenecid (MCE, HY—B0545) • 0.36 mL 96 Round V-bottom Deep Well Plates for Laboratory (Biaosen P-0.36-BSA-96) • 384-well conical bottom polypropylene plate (Nunc, 264573) • Corning® 384-well Flat Clear Bottom Black Polystyrene TC-treated Microplates (Corning 3764)
• Biological safety cabinet (ECSO, AC2-6S1-TC) • Carbon dioxide cell incubator (ECSO, CCI-170B-8) • Inverted microscope (Olympus, CKX53) • Microplate low-speed centrifuge (Xiangzhi, TD5B) • FLIPR® Penta (Molecul Device, 5.0)
• 1. Cell plating: V1a-CHO cells were digested and harvested, resuspended and counted, and then inoculated into a 384-well cell plate at a density of: 1.2×10^4 cells/25 μL/well. The cell plate was then incubated in an incubator at 37° C. with 5% CO2 for about 16-20 h. • 2. The next day: after preparing Assay Buffer, 20× Component A was thawed to room temperature, diluted with Assay buffer to 1× loading buffer, and placed at room temperature for later use. • 3. The medium was removed from the cell plate, and 40 μL of 1× loading buffer was quickly added to each well. After centrifugation, the cell plate was incubated at 37° C. in the dark for 120 minutes. • 4. The serially diluted positive compound, serially diluted test compound, and agonist working solution were formulated. After mixing the serially diluted positive compound/serially diluted test compound with the agonist at a 1:1 ratio, 20 μL per well was transferred to a 384-well compound source plate. • 5. The cell plate, agonist source plate, and pipette tips were placed into their respective positions in the FLIPR instrument. Using FLIPR Tetra, 10 μL of the diluted agonist from Step 4 was added to each test well, and the data were collected at a wavelength of 515 nm-575 nm. • 6. The signal values were plotted against the compound concentrations, and the curve fitting and IC50 calculation were performed using the nonlinear regression method of GraphPad Prism software.

OTR = biological target: T2, OTR (Homo sapiens, UniProt P30559); assay: Ca2+ mobilization in cells stably expressing OTR (FLIPR, antagonist mode); format: cell-based; details: OTR/HEK293 stably transfected cell line
T2 construct: expressed in transfected cells; host or cells: OTR/HEK293 stably transfected cell line
T2 sequence (P30559 1-389): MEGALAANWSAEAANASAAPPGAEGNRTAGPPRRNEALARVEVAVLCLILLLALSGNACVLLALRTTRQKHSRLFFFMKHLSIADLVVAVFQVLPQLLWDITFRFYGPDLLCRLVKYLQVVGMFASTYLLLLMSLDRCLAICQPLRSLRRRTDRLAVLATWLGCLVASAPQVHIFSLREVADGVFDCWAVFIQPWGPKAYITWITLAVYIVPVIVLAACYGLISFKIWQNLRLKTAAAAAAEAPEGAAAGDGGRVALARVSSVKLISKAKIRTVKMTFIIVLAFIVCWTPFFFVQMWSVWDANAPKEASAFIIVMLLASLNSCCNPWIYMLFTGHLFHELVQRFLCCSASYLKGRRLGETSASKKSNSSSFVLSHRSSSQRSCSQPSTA
Outline: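 OTR/HEK293 stable cells (20,000 per well) were loaded with Fluo-4 Direct plus probenecid. Cells were pre-exposed to 10-point, 3-fold compound dilutions before agonist challenge at EC80, determined beforehand per cell line. FLIPR calcium fluorescence (Max-Min) was fitted in Prism.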

[1] = Blood-brain distribution determination in SD rats; format: in vivo; details: female SD rats, oral, 10 mg/kg
Procedure: Test Example 4: Blood-Brain Distribution Determination in SD Rats
In this study, female SD rats were selected as test animals. The LC/MS/MS method was used to quantitatively determine the drug concentrations of the test compounds in plasma and brain tissues at three different time points (0.5 h, 2 h, 4 h or 6 h) after oral administration (5 mg/kg or 10 mg/kg) in rats, so as to evaluate the pharmacokinetic profile of the test drugs in rats.
(§1) The example compounds of the present disclosure, made in house.
(§2) SD rats (female, 180-220 g, 6-8 weeks old, purchased from Beijing Vital River Laboratory Animal Technology Co., Ltd., with animal production license number SCXK (Beijing) 2021-0006).
Vehicle for oral administration: 5% DMSO+95% PEG400 or a mixture of (50% Labrasol+50% Water).
The test compound, formulated as a clear solution or suspension, was administered to overnight-fasted SD rats via oral gavage. For oral gavage, blood samples (0.25 mL) were collected via jugular vein puncture at pre-dose (0 h) and 0.5 h, 2 h, 4 h or 6 h post-dose. The samples were placed into sodium heparin anticoagulant tubes. After collection, the blood samples were placed on wet ice and centrifuged within 1 hour to separate the plasma. The separated plasma was stored frozen in a −80° C. freezer. After blood collection, the animals were euthanized by cervical dislocation. The whole brain tissue was dissected out. The collected brain tissue was first rinsed with physiological saline, blotted dry with absorbent paper, and then stored frozen in a −80° C. freezer. Prior to analysis, the brain tissue samples and plasma samples were taken out from the −80° C. freezer. After the brain tissue samples were completely thawed, a given amount of brain tissue was weighed, and 50% methanol/water was added for homogenization. Drug concentrations in plasma and brain tissues were determined using the LC-MS/MS method, and the relevant pharmacokinetic parameters were calculated using the non-compartmental model with linear-log trapezoidal method in Phoenix WinNonlin 8.2.0 pharmacokinetic software.

[2] = Pharmacokinetic determination in SD rats; format: in vivo; details: rat, female SD rats, plasma; for AUC(0-t): read-out: Area under the curve AUC0-t; for half-life: read-out: Half-life T1/2 (converted)
Procedure: Test Example 3: Pharmacokinetic Determination in SD Rats
In this study, female SD rats were selected as test animals. The LC/MS/MS method was used to quantitatively determine the plasma drug concentrations of the test compounds at different time points after intravenous injection (2 mg/kg) or oral administration (5 mg/kg) in rats, so as to evaluate the pharmacokinetic profile of the test drugs in rats.
as §1, §2
Vehicle for intravenous administration: 5% DMSO+10% Solutol+85% Saline.
Vehicle for oral administration: 5% DMSO+95% PEG400.
The test compound, formulated as a clear solution or suspension, was administered to overnight-fasted SD rats via tail vein injection or oral gavage. For intravenous administration, blood samples (0.25 mL) were collected via jugular vein puncture at pre-dose (0 h) and 0.083, 0.25, 0.5, 1, 2, 4, 6, 8, and 24 h post-dose. The samples were placed into sodium heparin anticoagulant tubes, and the mixture was vortexed thoroughly and centrifuged at 6,000 rpm for 3 minutes at 4° C. For oral gavage, blood samples were collected via jugular vein puncture at pre-dose (0 h) and 0.083, 0.25, 1, 2, 4, 6, 8, and 24 h post-dose. The samples were placed into sodium heparin anticoagulant tubes, and the mixture was vortexed thoroughly and centrifuged at 6,000 rpm for 3 minutes. Plasma drug concentrations were determined using the LC-MS/MS method, and the relevant pharmacokinetic parameters were calculated using the non-compartmental model with linear-log trapezoidal method in Phoenix WinNonlin 8.2.0 pharmacokinetic software.

SMILES | IC50 (V1aR) [nM] | IC50 (OTR) [nM] | further results
CO/N=C1/C[C@@H](CO)N(C(=O)c2ccc(-c3ccc(F)c(C#N)c3C)c3c2OCO3)C1 [Example C0123, (S, Z)-6-Fluoro-3-(7-(2-(hydroxymethyl)-4-(methoxyimino)pyrrolidine-1-carbonyl)benzo[d][1,3]dioxolan-4-yl)-2-methylbenzonitrile] | 9060 | 16.1 | –
CO/N=C1\C[C@@H](CO)N(C(=O)c2ccc(-c3cccc(C#N)c3C)c3c2OCCO3)C1 [Example C0132, (S,E)-3-(8-(2-(Hydroxymethyl)-4-(methoxyimino)pyrrolidine-1-carbonyl)-2,3-dihydrobenzo[b][1,4]dioxin-5-yl)-2-methylbenzonitrile] | 8370 | 11.4 | –
CO/N=C1/C[C@@H](CO)N(C(=O)c2ccc(-c3cccc(C#N)c3C)c3c2OCCO3)C1 [Example C0133, (S,Z)-3-(8-(2-(Hydroxymethyl)-4-(methoxyimino)pyrrolidine-1-carbonyl)-2,3-dihydrobenzo[b][1,4]dioxin-5-yl)-2-methylbenzonitrile] | 2350 | 8.19 | –
CO/N=C1/C[C@@H](CO)N(C(=O)c2ccc(-c3c(F)ccc(C#N)c3C)c3c2OCCO3)C1 [Example C0150, 4-Fluoro-3-(8-((S,Z)-2-(hydroxymethyl)-4-(methoxyimino)pyrrolidine-1-carbonyl)-2,3-dihydrobenzo[b][1,4]dioxin-5-yl)-2-methylbenzonitrile] | 4050 | 7.07 | –
CO/N=C1/C[C@@H](CO)N(C(=O)c2ccc(-c3cccc(C#N)c3Cl)c3c2OCCO3)C1 [Example C0154, (S,Z)-2-Chloro-3-(8-(2-(hydroxymethyl)-4-(methoxyimino)pyrrolidine-1-carbonyl)-2,3-dihydrobenzo[b][1,4]dioxin-5-yl)benzonitrile] | 1610 | 5.32 | –
CO/N=C1/C[C@@H](CO)N(C(=O)c2ccc(-c3cccc(C#N)c3C)c(F)c2)C1 [Example C0158, (S,Z)-2′-Fluoro-4′-(2-(hydroxymethyl)-4-(methoxyimino)pyrrolidine-1-carbonyl)-2-methyl-[1,1′-biphenyl]-3-carbonitrile] | 520 | 17.2 | –

Now from value to compound, other results behind:

IC50 (V1aR) [nM] | IC50 (OTR) [nM] | SMILES | further results
529 | 21.9 | CO/N=C1/C[C@@H](CO)N(C(=O)c2cc(F)c(-c3cccc(C#N)c3C)c3c2OCCO3)C1 [Example C0160, 3-(6-Fluoro-8-((S,Z)-2-(hydroxymethyl)-4-(methoxyimino)pyrrolidine-1-carbonyl)-2,3-dihydrobenzo[b][1,4]dioxin-5-yl)-2-methylbenzonitrile] | –
747 | 8.35 | CO/N=C1/C[C@@H](CO)N(C(=O)c2cc(F)c(-c3cccc(C#N)c3C)c3c2OCO3)C1 [Example C0162, 3-(5-Fluoro-7-((S,Z)-2-(hydroxymethyl)-4-(methoxyimino)pyrrolidine-1-carbonyl)benzo[d][1,3]dioxol-4-yl)-2-methylbenzonitrile] | –
1870 | 20.6 | CO/N=C1/C[C@@H](C(C)(C)O)N(C(=O)c2ccc(-c3cccc(C#N)c3C)cc2)C1 [Example C0164, (S,Z)-4′-(2-(2-Hydroxypropan-2-yl)-4-(methoxyimino)pyrrolidine-1-carbonyl)-2-methyl-[1,1′-biphenyl]-3-carbonitrile] | –
389 | – | CO/N=C1/C[C@@H](CO)N(C(=O)c2ccc(-c3ccccc3C)cc2)C1 [Nolasiban, reference compound] | Brain tissue area under the curve AUC0-t [1]: 18727 ng·h/g; Kp ([1]; rat, brain/plasma, read-out: Brain/plasma exposure ratio): 3.29; AUC(0-t) ([1]; rat, plasma, read-out: Plasma area under the curve AUC0-t): 5700 ng·h/mL; AUC(0-t) ([2]; 2 mg/kg, IV (2 mpk)): 3050 ng·h/mL; AUC(0-t) ([2]; 5 mg/kg, PO (5 mpk)): 7700 ng·h/mL; clearance ([2]; 2 mg/kg, IV (2 mpk), read-out: Clearance Cl): 11.1 mL/min/kg; half-life ([2]; 2 mg/kg, IV (2 mpk)): 2.8 h; half-life ([2]; 5 mg/kg, PO (5 mpk)): 2.71 h
